The supplement of paper PMC10307832

Assays:
Assay in all cases: relative viability (nuclei count vs DMSO), 5 days (fraction); higher = more cells survive
[1] = compound: CC[C@@H](C)CNCC(=O)N1CCC2=C([C@@H]1COC3=CC=CC(=C3)C)C=CS2 [RU-SKI 43] + CC1(C)CCC(c2ccc(Cl)cc2)=C(CN2CCN(c3ccc(C(=O)NS(=O)(=O)c4ccc(N[C@H](CCN5CCOCC5)CSc5ccccc5)c(S(=O)(=O)C(F)(F)F)c4)cc3)CC2)C1 [Navitoclax] (partner 0.5 µM)
Procedure, shortened: (§1)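 Relative viability divides the nuclei count in treated wells by that in vehicle wells. Lung cancer cell lines were seeded in 1536-well plates, dosed by pin tool the next day, and fixed and stained after 5 days in one step with final 0.05% Triton X-100, 1% formaldehyde and 1 ug/ml Hoechst. Dosing was a single drug or a fixed anchor-drug dose plus five library-drug doses (not always all listed) in √10 steps, and values are medians of duplicate plates imaged at 4×.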

[2] = compound: Cn1cc(-c2cnc3ccc4ccc(CS(=O)(=O)NCc5ccccn5)cc4c(=O)c3c2)cn1 [MK-8033] + CC1(C)CCC(c2ccc(Cl)cc2)=C(CN2CCN(c3ccc(C(=O)NS(=O)(=O)c4ccc(N[C@H](CCN5CCOCC5)CSc5ccccc5)c(S(=O)(=O)C(F)(F)F)c4)cc3)CC2)C1 [Navitoclax] (partner 0.5 µM)
Procedure, shortened: as §1

[3] = compound: Cn1cc(-c2cnc3ccc4ccc(CS(=O)(=O)NCc5ccccn5)cc4c(=O)c3c2)cn1 [MK-8033] + Cc1nc(NC(=O)N2CCC[C@H]2C(N)=O)sc1-c1ccnc(C(C)(C)C(F)(F)F)c1 [Alpelisib] (partner 2 µM)
Procedure, shortened: as §1

[4] = compound: Cn1cc(-c2cnc3ccc4ccc(CS(=O)(=O)NCc5ccccn5)cc4c(=O)c3c2)cn1 [MK-8033] + Cc1cc(Nc2cc(N3CCN(C)CC3)nc(Sc3ccc(NC(=O)C4CC4)cc3)n2)n[nH]1 [Tozasertib] (partner 0.1 µM)
Procedure, shortened: as §1

Cell Line | relative viability ([1]; first compound 0.1 µM) | relative viability ([1]; first compound 0.3162 µM) | relative viability ([1]; first compound 1 µM) | relative viability ([1]; first compound 3.162 µM) | relative viability ([1]; first compound 10 µM) | relative viability ([2]; first compound 0.02 µM) | relative viability ([2]; first compound 0.06325 µM) | relative viability ([2]; first compound 0.2 µM) | relative viability ([2]; first compound 0.6325 µM) | relative viability ([2]; first compound 2 µM) | relative viability ([3]; first compound 0.02 µM) | relative viability ([3]; first compound 0.06325 µM) | relative viability ([3]; first compound 0.2 µM) | relative viability ([3]; first compound 0.6325 µM) | relative viability ([3]; first compound 2 µM) | relative viability ([4]; first compound 0.02 µM) | relative viability ([4]; first compound 0.06325 µM) | relative viability ([4]; first compound 0.2 µM) | relative viability ([4]; first compound 0.6325 µM) | relative viability ([4]; first compound 2 µM)
LU99A | 0.779 | 0.793 | 0.87 | 0.885 | 0.835 | 0.751 | 0.667 | 0.794 | 0.819 | 0.593 | 0.629 | 0.489 | 0.523 | 0.464 | 0.412 | 0.268 | 0.262 | 0.281 | 0.268 | 0.269
LXF-289 | 0.982 | 0.973 | 1.03 | 0.992 | 0.91 | 0.945 | 0.928 | 0.923 | 0.979 | 0.941 | 1.08 | 0.984 | 0.976 | 0.994 | 0.998 | 0.187 | 0.148 | 0.157 | 0.203 | 0.179
NCI-H23 | 0.615 | 0.9 | 0.99 | 0.998 | 0.687 | 0.938 | 0.777 | 0.682 | 0.779 | 0.837 | 0.737 | 0.639 | 0.679 | 0.668 | 0.633 | 0.362 | 0.399 | 0.253 | 0.415 | 0.429
NCI-H322M | 1.15 | 1.4 | 1.23 | 1.39 | 1.15 | 1.24 | 1.08 | 1.18 | 1.2 | 1.17 | 0.697 | 0.77 | 0.801 | 0.792 | 0.839 | 0.522 | 0.464 | 0.427 | 0.449 | 0.44
NCI-H441 | 0.677 | 0.498 | 0.616 | 0.611 | 0.542 | 0.566 | 0.448 | 0.569 | 0.573 | 0.415 | 0.853 | 0.643 | 0.648 | 0.709 | 0.67 | 0.578 | 0.568 | 0.62 | 0.605 | 0.475
NCI-H460 | 1.15 | 1.23 | 1.34 | 1.44 | 1.11 | 0.975 | 0.921 | 1.01 | 1.19 | 1.04 | 0.496 | 0.368 | 0.348 | 0.4 | 0.435 | 0.392 | 0.443 | 0.387 | 0.377 | 0.108
NCI-H520 | 1.08 | 1.42 | 1.28 | 1.08 | 1.03 | 1.14 | 1.03 | 1.02 | 1.06 | 0.975 | 0.806 | 0.841 | 0.832 | 0.905 | 0.871 | 0.408 | 0.453 | 0.433 | 0.485 | 0.469
NCI-H596 | 0.896 | 0.833 | 0.994 | 1.06 | 1.01 | 0.923 | 0.884 | 0.856 | 0.857 | 0.951 | 0.436 | 0.511 | 0.462 | 0.46 | 0.477 | 0.802 | 0.898 | 0.859 | 0.944 | 0.853
NCI-H647 | 1.12 | 1.29 | 1.26 | 1.23 | 1.15 | 1.11 | 1.01 | 1.09 | 1.04 | 0.999 | 1.18 | 1.02 | 0.929 | 1.16 | 1.07 | 0.276 | 0.212 | 0.258 | 0.0983 | 0.282
NCI-H727 | 0.305 | 0.355 | 0.397 | 0.35 | 0.358 | 0.377 | 0.435 | 0.311 | 0.465 | 0.486 | 0.502 | 0.615 | 0.589 | 0.577 | 0.589 | 0.577 | – | 0.714 | 0.465 | 0.61
NCI-H838 | 1.17 | 1.31 | 1.27 | 1.22 | 1.1 | 1.13 | 1.14 | 1.01 | 1.22 | 1.08 | 1 | 0.979 | 0.94 | 0.98 | 0.974 | 0.297 | 0.272 | 0.281 | 0.266 | 0.236
NCI-H1355 | 0.936 | 0.996 | 0.921 | 0.979 | 0.997 | 0.911 | 0.897 | 0.894 | 0.981 | 0.928 | 0.766 | 0.74 | 0.72 | 0.87 | 0.786 | 0.572 | 0.524 | 0.513 | 0.526 | 0.398
NCI-H1395 | 1.15 | 1.15 | 1.32 | 1.14 | 1.02 | 1.38 | 1.02 | 1.04 | 1.15 | 1.07 | 1.2 | 1 | 1.16 | 1.13 | 1.05 | 0.757 | 0.651 | 0.735 | 0.76 | 0.707
NCI-H1437 | 1.08 | 1.33 | 1.13 | 1.09 | 0.998 | 1.03 | 1.03 | 1.01 | 1 | 0.953 | 0.966 | 0.905 | 0.883 | 0.941 | 0.956 | 0.408 | 0.424 | 0.401 | 0.395 | 0.372
NCI-H1651 | 1.05 | 1.24 | 1.14 | 1.01 | 1.01 | 1.06 | 1.03 | 1.07 | 1.13 | 1.02 | 0.888 | 0.808 | 0.931 | 0.898 | 0.982 | 0.746 | 0.667 | 0.734 | 0.524 | 0.557
